Results: patent US20220288102A1, “Compounds for Hepatitis B Treatment” (Agency for Science, Technology and Research, priority 2019, published 2022)
“Also recorded” adds a separate entry of the source.

Tests used:
HBsAg [1] = assay: HBsAg inhibition in HepG2 2.15 cells (primary screen and dose response, HBsAg ELISA); type: cell-based, Hepatitis B virus; details: for HBsAg inhibition, dose response curve / percentage inhibition curve (HBsAg): 8-point dose response in HepG2 2.15 cells starting from 30 μM; for IC50: Hepatitis B virus, HepG2.2.15, read-out: IC50 (HBsAg); for percentage inhibition curve (HBsAg): FIG. 4
Experimental: HBsAg ELISA. HBsAg ELISA was carried out as described in detail below. In brief 25 μL of the cell culture supernatant was collected at the indicated timepoints on the figure legends and was used for the HBsAg ELISA.
Procedure • 1. Coat microwells with 25 ul per well of mouse monoclonal [86C] diluted in coating buffer (6 ug per ml; 300 ul from 0.2 mg/ml stock in 10 ml of coating buffer)(150 ng/well). • 2. Seal plate and incubate overnight at 4° C. • 3. Aspirate wells and wash 3 times with 50 ul/well of wash buffer. • 4. After last wash, invert plate and blot on c-towel and spin 1000 rpm for 1 min to remove residual solution. • 5. Block plates with 75 ul/well of assay diluent. Incubate at RT for 2 hrs. • 6. Aspirate/wash as in step 3. • 7. Prepare 4000 ng/ml of active HBS Ag (Adw) full length protein in assay diluent and titrate 2 fold for 12 different decreasing concentration. Pipette 25 ul of sample and different dilutions of active HepB surface Ag (Adw) into appropriate wells. Seal plate and incubate for 2 hrs at RT. • 8. Aspirate/wash as in step 3 but with total 5 washes. • 9. Add 25 ul of working detector (Rabbit polyclonal to HBS-Biotin (4500 ng/ml)+SAv-HRP (1:1000) reagent to each well. Seal plate and incubate for 1 hr at RT. • 10. Aspirate/wash as in step 3 but for 7 washes. • 11. Add 25 ul of TMB substrate solution to each well and incubate plate for 30 minutes at RT in dark. • 12. Add 25 ul of stop solution (1N HCl) to each well, read absorbance at 450 nm within 30 minutes of stopping reaction.
In block 205, a primary screen of the library of compounds was done in HepG2 2.15 cells to determine the inhibitory activity of HBsAg (the surface antigen of the Hepatitis B virus which indicates hepatitis B infection in patients) and parallel cytotoxicity. In block 310, the hit compounds (“HITS” or “HITs”) were determined by identifying compounds with certain criteria. […] For example, the compounds may be tested at 3 μM (data shown herein) or 10 μM.
A secondary screen of the hit compounds was done to determine the EC50 of the hit compounds.

[2] = Cytotoxicity in HepG2 2.15 cells; type: cell-based; details: human, Hep G2 2.15 cells
Experimental: In block 205, a primary screen of the library of compounds was done in HepG2 2.15 cells to determine the inhibitory activity of HBsAg (the surface antigen of the Hepatitis B virus which indicates hepatitis B infection in patients) and parallel cytotoxicity. In block 310, the hit compounds (“HITS” or “HITs”) were determined by identifying compounds with certain criteria. […] In the preliminary screen, the compounds are typically tested at higher concentrations than expected and may lead to greater than desired cytotoxicity (>20%). For example, the compounds may be tested at 3 μM (data shown herein) or 10 μM. However, the compound was subsequently further tested in a proper dose response manner (described below) to determine whether the drug is able to elicit the antiviral response (decrease in HBsAg levels) with low cytotoxicity (i.e. <20% cytotoxicity).
From the primary high throughput screen of 151 epigenetic modulators in the SelleckChem compound library at a 3 μM concentration, 16 hit compounds were identified to have good antiviral activity resulting in high HBsAg loss (>50%) and low cytotoxicity (<20%) and the results are shown in FIG. 3.
A secondary screen of the hit compounds was done to determine the EC50 of the hit compounds. […] Some of the other compounds were determined to be less suitable. […] The MI-2 EC50 is very high and appers to be dependent on the toxic nature of the compound and was not a viable option. The percentage inhibition curve of MC1568, OF-1 and tofacitinib in FIG. 4 are close to 0 in the vertical axis and may not be readily seen in FIG. 4. It may be seen that the secondary screen is able to filter off unsuitable compounds from the primary screen.

extracellular HBV DNA = assay: Extracellular HBV DNA (qPCR) in infected primary human hepatocytes; type: cell-based, Hepatitis B virus; details: HBVcc-infected primary human hepatocytes, compound treatment 3 μM
Experimental: HBV extracellular DNA was extracted from 200 μL of cell culture supernatant collected at the end of the experiment as indicated on the figure legends. DNA was extracted according to the QIAamp DNA Mini Kit (Qiagen).
(§1) FIG. 8 briefly describes an experimental model of the method to infect the cells with HBV, treatment with drugs, and subsequent analysis. The primary human hepatocytes were seeded in a 96 well plate coated with Collagen I (30 minutes at room temperature) with DMSO (1%) induction. The next day, the cells were infected with purified HBV with a multiplicity of infection (MOI) of 500 (i.e. the ratio of the infection agent (HBV) to the infection target (cell)) in media containing 4% polyethylene glycol 8000 (PEG-8000) and 1% DMSO (day 0). On the next day, the infected cells were washed vigorously to remove excess virus by washing 3 times without removing the spent media completely and treated with the test compounds at 3 μM concentration (day 1). In addition. the supernatant was collected at day 3 and the cells pulsed again with the test compounds at 3 μM concentration. At day 5, the supernatant was collected for analysis with the HBsAg ELISA and finally at day 8 cells were lysed for DNA isolation, eHBV analysis and cccDNA analysis. This allows comparison of the effects of the compounds on day 3 and day 5. Some of the cells were fixed, permeabalized and stained with antibody to HBcAg to determine HBcAg levels via IFA.

HBV in HepAD38.7 cells = assay: Secondary validation of the drug screen in HepAD38.7 cells; type: cell-based, Hepatitis B virus
Experimental: In block 215, a secondary screen was conducted to determine the EC50 values (the effective concentration to obtain 50% activity or inhibition) of the HIT compounds. In block 220, the hit compounds were tested in HEPAD38.7 HBV live infection models to determine the robustness of the hit compounds, i.e. whether the hit compounds are effective. In block 225, the novel lead compounds or scaffold structures are identified and mechanism of action (MOA) studies for target engagement were developed. In block 230, the lead compound is optimised and validated or if the compound is known but for a different non-biological use or biological target, the compound may be repurposed for the inhibition of HBV. In block 235, the efficacy of the compound was determined in animal models.
A secondary validation of the drug screen in HepAD38.7 cells and a functional gene knockdown using Lipofectamine 3000 reagent was also performed. The genes selected were the annotated targets of the selected epigenetic inhibitors.

HBsAg [3] = assay: HBsAg ELISA in HBV-infected primary human hepatocytes; type: cell-based, Hepatitis B virus; details: 3 μM
Experimental: HBV infection of PHH. Primary human hepatocytes were infected at […] in presence of 4% PEG8000 and 1% DMSO as described earlier. The samples, cell lysate for RNA and or DNA as well as cell culture supernatant were harvested at indicated timepoints on figure legends.
Procedure • 1. […] Seal plate and incubate overnight at 4° C. • 3. […] Block plates with 75 ul/well of assay diluent. Incubate at RT for 2 hrs. • 6. Aspirate/wash as in step 3. • 7.
as §1

[4] = test system: primary human hepatocytes; assay: Cytotoxicity (CCK-8) in infected primary human hepatocytes; type: cell-based; details: 3 μM
cccDNA = cccDNA (qPCR) in infected primary human hepatocytes; type: cell-based, Hepatitis B virus; details: HBVcc-infected primary human hepatocytes, compound treatment 3 μM
Experimental: The DNA is isolated from the cellular lysate, purification with Plasmid safe ATP-dependent DNAse is performed to remove non-circular DNAs (relaxed circular DNA). cccDNA levels are then measure using a Taqman-probe based quantitative polymerase chain reaction.
as §1, with “Some of the cells were fixed, permeabalized and stained with antibody to HBcAg to determine HBcAg levels via IFA.” left out

SMILES	HBsAg inhibition, dose response curve (HBsAg [1])	IC50 (HBsAg [1])	IC50 [2]	antiviral effect in HepAD38 cells (HBV in HepAD38.7 cells)	other results
Cc1cc(Nc2nc(N[C@@H](C)c3ccc(F)cc3)c(C#N)cc2F)n[nH]1 [AZ960]	suitable dose response curve	193 nM	231 nM	–	extracellular HBV DNA levels in the cell culture supernatant (extracellular HBV DNA): reduces extracellular HBV DNA levels more than Entecavir
COc1cc(Nc2ncc3c(n2)-c2ccc(Cl)cc2C(c2c(F)cccc2OC)=NC3)ccc1C(=O)O [Alisertib]	not as efficacious	–	–	did not show an effect	–
Cc1nc(N)sc1-c1ccnc(Nc2ccc(N3CCOCC3)cc2)n1 [CYC-116]	suitable dose response curve	420 nM	1490 nM	significantly higher antiviral activity	HBsAg levels (HBsAg [3]; Day 3 and Day 5): reduces HBsAg levels more than Entecavir; also recorded: lowest HBsAg levels; cytotoxicity level (CCK-8) [4]: higher cytotoxicity levels; extracellular HBV DNA levels in the cell culture supernatant (extracellular HBV DNA): reduces extracellular HBV DNA levels more than Entecavir; cccDNA levels in the cell lysate (cccDNA): lowest measured cccDNA levels
C=C1[C@H](CO)[C@@H](O)C[C@@H]1n1cnc2c(=O)[nH]c(N)nc21 [Entecavir]	–	–	–	–	cytotoxicity level (CCK-8) [4]: low toxicity levels
Cn1c(/C=C/C(=O)NO)ccc1/C=C/C(=O)c1cccc(F)c1 [MC-1568]	–	–	–	–	percentage inhibition curve (HBsAg) (HBsAg [1]): ~0%
CCCc1cc2c(N3CCN(C4=NCC(C)(C)S4)CC3)ncnc2s1 [MI-2]	–	–	–	–	EC50 (HBsAg [1]; secondary screen, HepG2 2.15 cells): very high
CC(C)c1cc2c(N3CCN(C4=NCC(C)(C)S4)CC3)ncnc2s1 [MI-3]	suitable dose response curve	1120 nM	4370 nM	–	–
CCCCN(Cc1ccc(C(=O)NO)cc1)C(=O)Nc1ccccc1 [Nexturastat A]	suitable dose response curve	980 nM	3580 nM	significantly higher antiviral activity	HBsAg levels (HBsAg [3]; Day 3 and Day 5): reduces HBsAg levels more than Entecavir
COc1cc2c(cc1NS(=O)(=O)c1ccc(Br)cc1C)n(C)c(=O)n2C [OF-1]	–	–	–	–	percentage inhibition curve (HBsAg) (HBsAg [1]): ~0%
CCS(=O)(=O)c1cccc(-c2cc(C(=O)NC3CCN(C)CC3)c(C)c3[nH]c4ncc(C)cc4c23)c1 [TAK-901]	suitable dose response curve	400 nM	11000 nM	significantly higher antiviral activity	HBsAg levels (HBsAg [3]; Day 3 and Day 5): reduces HBsAg levels more than Entecavir; cytotoxicity level (CCK-8) [4]: higher cytotoxicity levels; extracellular HBV DNA levels in the cell culture supernatant (extracellular HBV DNA): reduces extracellular HBV DNA levels more than Entecavir; cccDNA levels in the cell lysate (cccDNA): lowest measured cccDNA levels
C[C@@H]1CCN(C(=O)CC#N)C[C@@H]1N(C)c1ncnc2[nH]ccc12 [Tofacitinib]	–	–	–	–	percentage inhibition curve (HBsAg) (HBsAg [1]): ~0%
CN1CCc2c(c3ccccc3n2Cc2ccc(C(=O)NO)cc2)C1.Cl [Tubastatin A HCl, Tubastatin A hydrochloride salt]	suitable dose response curve	2000 nM	7210 nM	significantly higher antiviral activity	HBsAg levels (HBsAg [3]; Day 3 and Day 5, hydrochloride salt): reduces HBsAg levels more than Entecavir; also recorded: lowest HBsAg levels
